Paper PMC6337261, “Short Peptides with Uncleavable Peptide Bond Mimetics as Photoactivatable Caspase-3 Inhibitors” (Molecules, 2019)

Key:
caspase-3 [1] = assay: Competitive ABPP with bisulfite aldehyde quenching; format: biochemical
Excerpt: (§1) The presence of a ψ(CH2NH) peptide with benzophenone or UV irradiation alone was not sufficient for inhibition, but all needed to be present to block the caspase-3 active site (Figure 3G,H). We hypothesized that the active species is a peptide aldehyde, formed by oxidation of the ψ(CH2NH) moiety (see also discussion in Section 3). To support this hypothesis, we performed an experiment in which this aldehyde was trapped by sodium bisulfite, forming a sodium bisulfite adduct.
Compounds were incubated with or without irradiation (10 min) in PBS with or without 10 mM NaHSO3 and incubated for another 20 min before addition to caspase-3. After 30 min, ABP 13 was added (final concentration 1 μM) to label residual caspase activity. The samples were incubated for 30 min at room temperature, after which 1/3rd volume of 4× Laemmli buffer was added. Samples were processed in the same way as under Section 4.4.1.
(§2) Figure 3 Non-covalent inhibition of caspase-3 by compounds 9 and 10. (A) Fluorescent labeling of caspase-3 by ψ(CH2NH) peptides 9–10 and triazolo peptides 11–12. […] (B) Deconvoluted ESI-MS of caspase-3. (C) Deconvoluted ESI-MS of caspase-3 after incubation with covalent activity-based probe (ABP) 13. Note that the active site, located on the large subunit, is modified. (D) Deconvoluted ESI-MS of caspase-3 after irradiation in the presence of benzophenone ψ(CH2NH) 10a, not resulting in covalent modification. […] (F) Structures of ψ(CH2NH) peptides 14 and 15 without photocrosslinker. (G) UV irradiation of ψ(CH2NH) peptides 14 and 15 in the presence of benzophenone leads to inhibition of caspase-3, as monitored by competitive ABPP. […] Ac-DEVD-aldehyde (100 nM) was used as a control compound, whereas 9a and 10a (10 μM) were irradiated for 10 min and reacted with sodium bisulfite for an additional 20 min before 30 min incubation with caspase-3 and read-out with a fluorescent caspase ABP.

caspase-3 [2] = assay: Competitive ABPP with ψ(CH2NH) peptides irradiated in presence of spiked-in benzophenone; format: biochemical; conditions: for Inhibition of caspase-3 after irradiation with benzophenone: irradiated in presence of an equimolar amount (1 eq) of benzophenone
Excerpt: as §1
(§3) Although this points towards a cyclization rather than reaction with a water molecule, it is not clear whether it leads to a potent caspase inhibitor. […] Therefore, cyclization seemed improbable, as this would most likely lead to a shift in retention time. We hypothesized that irradiation could potentially lead to oxidation of a very small amount of the ψ(CH2NH) moiety with benzophenone as a photosensitizer, resulting in minute quantities of aldehydes that were not detected on LC-MS, but were sufficient for caspase-3 inhibition. Oxidation of secondary amines under influence of benzophenone has been reported before. […] Note that triazoles cannot undergo this transformation, further explaining their inactivity. The oxidation hypothesis was supported by an experiment in which ψ(CH2NH) peptides 14 and 15, not containing a benzophenone, were irradiated in the presence of 1 eq of spiked-in benzophenone (Figure 3G–I).
Caspase-3, produced in E. coli and purified as described before, was reacted in PBS with 1 mM DTT. Samples were combined with the indicated probe and irradiated with a handheld UV lamp at 365 nm for 30 min at room temperature. […]
Figure 3 Non-covalent inhibition of caspase-3 by compounds 9 and 10. […] (G) UV irradiation of ψ(CH2NH) peptides 14 and 15 in the presence of benzophenone leads to inhibition of caspase-3, as monitored by competitive ABPP. […] Ac-DEVD-aldehyde (100 nM) was used as a control compound, whereas 9a and 10a (10 μM) were irradiated for 10 min and reacted with sodium bisulfite for an additional 20 min before 30 min incubation with caspase-3 and read-out with a fluorescent caspase ABP.

caspase-3 [3] = assay: Gel-based competitive ABPP on recombinant caspase-3; format: biochemical; conditions: for Inhibition of caspase-3 activity (caspase ABP labeling): PBS with 1 mM DTT, fluorescent ABP read-out on gel; for Inhibition of caspase-3 (competitive ABPP, Figure S1): triazolo peptides at 100 μM
Description: (§4) To check whether our probes function as inhibitors, competitive ABPP [28] was performed. Recombinant caspase-3 was incubated with probes 9a–10c, 11a and 12a with or without irradiation at 365 nm, followed by labeling of residually active caspase-3 with the fluorescent, caspase-directed activity-based probe (ABP) SV149, a tetramethylrhodamine derivative of KMB-01 [29]. Caspase activity itself was not affected by UV irradiation, as shown by bands of equal intensity with and without UV light (Figure 2A). […] To confirm inhibition, we also performed substrate cleavage assays using the fluorogenic aminomethyl coumarin substrate Ac-DEVD-AMC. […] Inhibition of active caspases could also be achieved in an apoptotic cell lysate (Figure 2D).
(§5) Caspase-3, produced in E. coli and purified as described before, was reacted in PBS with 1 mM DTT. Samples were combined with the indicated probe and irradiated with a handheld UV lamp at 365 nm for 30 min at room temperature. For competition experiments with ‘pre-activation,’ the indicated probes were irradiated for 30 min prior to addition to caspase-3, and incubated for an additional 30 min. Next, ABP 13 was added (final concentration 1 μM) to label residual caspase-3 activity. The samples were incubated for 30 min at room temperature, after which 1/3rd volume of 4× Laemmli buffer was added. Samples were heated at 95 °C for 2 min and resolved by 15% SDS-PAGE. Gels were scanned using a Typhoon Trio+ fluorescent scanner with excitation at 532 nm and an emission filter of 580 nm. Gel images were processed with ImageJ (background subtraction with rolling ball radius of 50 pixels and automated contrast adjustment).
(§6) Figure 2 Inhibition of caspase-3. (A) Competitive activity-based protein profiling (ABPP) experiments using ψ(CH2NH) or triazolo peptide derivatives 9–12 with or without irradiation. Compounds 9a–12a were used at 10 μM final concentration, 9b, 9c, 10b and 10c at 100 μM. Inh = caspase inhibitor biotin-DEVD-AOMK, used at 100 nM concentration. (B) Representative progress curves of fluorescence produced by Ac-DEVD-AMC (50 μM) cleavage by caspase-3, irradiated with or without 10 μM of the indicated compounds. (C) Bar graph of residual caspase-3 activity of replicate experiments (n = 2) of those in (B). (D) Inhibition of executioner’s caspase-3 and -7 in lysates of HEK293 cells, treated with cytochrome c/dATP to induce apoptosis.

caspase-3 [4] = assay: Competitive ABPP with UV pre-activation of the probes; format: biochemical; conditions: compound irradiated at 365 nm for 30 min, light source removed, then added to caspase-3 for 30 min; fluorescent ABP read-out
Description: (§7) Compounds were irradiated with UV light of 365 nm for 30 min and after removal of the light source added to caspase-3. Residual caspase activity was measured by using a fluorescent caspase ABP as in our previous experiments above.
as §5, §2

[5] = LC-MS analysis of probes before and after UV irradiation; format: physicochemical; conditions: irradiation at 365 nm, gradient 10% to 95% acetonitrile with 0.1% formic acid
Description: as §7, §3
All materials were purchased from Sigma Aldrich GmbH (GmbH, Darmstadt, Germany), Carl Roth GmbH + Co. KG (Karlsruhe, Germany), Thermo Fischer Scientific Inc. (Dreieich, Germany), Rapp Polymere GmbH (Tübingen, Germany), Applichem GmbH (Darmstadt, Germany), VWR International GmbH (Darmstadt, Germany), Merck KGaA (Darmstadt, Germany), CreoSalus Inc. (Louisville, KY, USA), and Iris Biotech GmbH (Marktredwitz, Germany) and were used as received, unless otherwise noted. TLC was performed on pre-coated ALUGRAM SIL G plates with detection by a handheld UV lamp (254 nm) and subsequent staining with potassium permanganate, p-anisaldehyde, ninhydrin or cerium ammonium molybdate. LC-MS analysis was performed on a Thermo LCQ Fleet HPLC-MS/MS system using a gradient of 10% to 95% acetonitrile containing 0.1% formic acid. NMR spectra were recorded on a Bruker Avance DRX 400 spectrometer with tetramethylsilane as internal standard. High resolution ESI-FTMS was performed on a Thermo Scientific LTQ Orbitrap Velos Pro mass spectrometer.

caspase-3 [6] = assay: Fluorogenic substrate (Ac-DEVD-AMC) cleavage assay; format: biochemical; conditions: 10 μM compound, 2 nM caspase-3, 50 μM Ac-DEVD-AMC, HEPES pH 7.4 with 10 mM DTT, n = 2
Description: as §4
Purified caspase-3 (2 nM) was pre-activated by incubating in caspase reaction buffer (20 mm HEPES pH 7.4, 100 mM NaCl, 1 mM EDTA, 10% sucrose (w/v), 0.1% CHAPS (w/v), 10 mM DTT) for 15 min at 37 °C. Inhibitors 9a, 10a, and DMSO (control) were incubated with the caspase-3 at 10 μM final concentration. One set was irradiated with a handheld UV lamp at 365 nm for 30 min at room temperature whereas the control set was not irradiated. After 30 min, 99 μL of the sample was added to 1 μL of Ac-DEVD-AMC fluorogenic substrate (5 mM in dmso; 50 μM final concentration) in a black 96 well plate. The fluorescence intensity was read using an iD3 SpectraMax platereader (Molecular Devices; excitation wavelength: 340 nm; emission wavelength: 475 nm). The experiment was performed in duplicate. Activity was determined as the slope from the linear part of the progress curve by using GraphPad Prism.
as §6

[7] = 10 μM compound, irradiated at 365 nm for 30 min at room temperature
[8] = 100 μM compound, irradiated at 365 nm for 30 min at room temperature
[9] = 100 μM compound, non-irradiated

Ac-DEVD-aldehyde [Ac-DEVD peptide aldehyde, reference compound]
Inhibition of caspase-3 (caspase-3 [1]; 100 nM, without bisulfite, 30 min incubation with caspase-3, fluorescent ABP read-out): efficiently inhibits caspase-3

Acetyl-Asp-Glu-Val-Aspψ(CH2NH)-Ala-NH2 [compound 14]
Inhibition of caspase-3 after irradiation with benzophenone (caspase-3 [2]): still led to inhibition
Requirement for inhibition of caspase-3 (caspase-3 [2]; with or without benzophenone (BP) and UV irradiation): needs both BP and UV irradiation

Hexynoyl-Asp-Glu-Val-Asp(triazolo)-Ala-Bpa-Gly-NH2 [12a]
Inhibition of caspase-3 activity (caspase ABP labeling) (caspase-3 [3]; [7]): some inhibition
Inhibition of caspase-3 (competitive ABPP, Figure S1) (caspase-3 [3]): inhibition that is nearly quantitative

Hexynoyl-Asp-Glu-Val-Aspψ(CH2NH)-Ala-NH2 [compound 15]
Inhibition of caspase-3 after irradiation with benzophenone (caspase-3 [2]): still led to inhibition

Hexynoyl-Asp-Glu-Val-Aspψ(CH2NH)-Ala-p-azido-Phe-NH2 [10c]
Inhibition of caspase-3 activity (caspase ABP labeling) (caspase-3 [3]; [8]): did not show any inhibition

Hexynoyl-Asp-Glu-Val-Aspψ(CH2NH)-Ala-photoLeu-NH2 [10b]
Inhibition of caspase-3 after UV pre-activation of compound (caspase-3 [4]): still inhibited
Inhibition of caspase-3 activity (caspase ABP labeling) (caspase-3 [3]; [8]): complete inhibition
Inhibition of caspase-3 activity (caspase ABP labeling) (caspase-3 [3]; [9]): no decrease in caspase ABP labeling
Change of probe upon UV irradiation (LC-MS before and after) [5]: loss of nitrogen

Hexynoyl-Bpa-Asp-Glu-Val-Asp(triazolo)-Ala-NH2 [11a]
Inhibition of caspase-3 activity (caspase ABP labeling) (caspase-3 [3]; [7]): did not
Inhibition of caspase-3 (competitive ABPP, Figure S1) (caspase-3 [3]): not show efficient inhibition

Hexynoyl-Bpa-Asp-Glu-Val-Aspψ(CH2NH)-Ala-NH2 [9a]
Inhibition of caspase-3 after UV pre-activation of compound (caspase-3 [4]): still inhibited
Inhibition of caspase-3 activity (caspase ABP labeling) (caspase-3 [3]; [7]): complete inhibition
Inhibition of caspase-3 activity (caspase ABP labeling) (caspase-3 [3]; 10 μM compound, non-irradiated): no decrease in caspase ABP labeling
Inhibition of Ac-DEVD-AMC cleavage by caspase-3 (caspase-3 [6]; irradiated at 365 nm for 30 min at room temperature): complete blockage of substrate processing
Inhibition of Ac-DEVD-AMC cleavage by caspase-3 (caspase-3 [6]; not irradiated): little to no inhibition
Inhibition of caspase-3 by irradiated sample exposed to sodium bisulfite (caspase-3 [1]; 10 μM, irradiated 10 min, reacted with 10 mM NaHSO3 for 20 min, then 30 min with caspase-3, fluorescent ABP read-out): lose their inhibitory capacity
Change of probe upon UV irradiation (LC-MS before and after) [5]: did not show obvious changes

Hexynoyl-p-azido-Phe-Asp-Glu-Val-Aspψ(CH2NH)-Ala-NH2 [9c]
Inhibition of caspase-3 activity (caspase ABP labeling) (caspase-3 [3]; [8]): did not show any inhibition

Hexynoyl-photoLeu-Asp-Glu-Val-Aspψ(CH2NH)-Ala-NH2 [9b]
Inhibition of caspase-3 after UV pre-activation of compound (caspase-3 [4]): still inhibited
Inhibition of caspase-3 activity (caspase ABP labeling) (caspase-3 [3]; [8]): complete inhibition
Inhibition of caspase-3 activity (caspase ABP labeling) (caspase-3 [3]; [9]): no decrease in caspase ABP labeling
Change of probe upon UV irradiation (LC-MS before and after) [5]: loss of nitrogen
